Earlier results, collected in PMC8513935.
Blank lines part the entries; values can stand above or below the compound they belong to.

Assays:
[1] = log P octanol/water from commercial databases, averaged (the ESI); conditions: Octanol (wet), 25 C
[2] = experimental, compiled by the authors from the literature (the ESI cites the sources)
[3] = derived by the authors as gas->solvent minus gas->water (a hypothetical dry solvent; the ESI), not a two-phase measurement

Compound: C/C=C\C
log K of transfer, water to solvent [1]: 2.33 log10 K | log K of transfer, gas to solvent ([2]; Hexadecane, 25 C): 1.74 log10 K | log K of transfer, gas to solvent ([2]; Water, 25 C): -0.99 log10 K | log K of transfer, water to solvent ([3]; Hexadecane, 25 C): 2.73 log10 K

log K of transfer, water to solvent [1]: 4.8 log10 K | log K of transfer, gas to solvent ([2]; 2-Methylpropan-2-ol, 25 C): 2.64 log10 K | log K of transfer, gas to solvent ([2]; Butanone, 25 C): 2.97 log10 K | log K of transfer, gas to solvent ([2]; Decan-1-ol, 25 C): 2.86 log10 K | log K of transfer, gas to solvent ([2]; Hexadecane, 25 C): 3.1 log10 K | log K of transfer, gas to solvent ([2]; Hexan-1-ol, 25 C): 2.98 log10 K | log K of transfer, gas to solvent ([2]; Pentan-1-ol, 25 C): 2.85 log10 K | log K of transfer, gas to solvent ([2]; Propan-1-ol, 25 C): 2.69 log10 K | log K of transfer, gas to solvent ([2]; Propan-2-ol, 25 C): 2.7 log10 K | log K of transfer, gas to solvent ([2]; Tetrahydrofuran, 25 C): 3.41 log10 K | log K of transfer, gas to solvent ([2]; Water, 25 C): -2.12 log10 K | log K of transfer, water to solvent ([3]; 2-Methylpropan-2-ol, 25 C): 4.76 log10 K | log K of transfer, water to solvent ([3]; Butanone, 25 C): 5.09 log10 K | log K of transfer, water to solvent ([3]; Decan-1-ol, 25 C): 4.98 log10 K | log K of transfer, water to solvent ([3]; Hexadecane, 25 C): 5.22 log10 K | log K of transfer, water to solvent ([3]; Hexan-1-ol, 25 C): 5.1 log10 K | log K of transfer, water to solvent ([3]; Pentan-1-ol, 25 C): 4.97 log10 K | log K of transfer, water to solvent ([3]; Propan-1-ol, 25 C): 4.81 log10 K | log K of transfer, water to solvent ([3]; Propan-2-ol, 25 C): 4.82 log10 K | log K of transfer, water to solvent ([3]; Tetrahydrofuran, 25 C): 5.53 log10 K
Compound: CC(C)CC(C)(C)C

log K of transfer, water to solvent [1]: 2.35 log10 K | log K of transfer, gas to solvent ([2]; CCl4, 25 C): 5.42 log10 K | log K of transfer, gas to solvent ([2]; Chlorobenzene, 25 C): 5.86 log10 K | log K of transfer, gas to solvent ([2]; Hexadecane, 25 C): 4.85 log10 K | log K of transfer, gas to solvent ([2]; Hexane, 25 C): 4.96 log10 K | log K of transfer, gas to solvent ([2]; Water, 25 C): 4.6 log10 K | log K of transfer, water to solvent ([3]; CCl4, 25 C): 0.82 log10 K | log K of transfer, water to solvent ([3]; Chlorobenzene, 25 C): 1.26 log10 K | log K of transfer, water to solvent ([3]; Hexadecane, 25 C): 0.256 log10 K | log K of transfer, water to solvent ([3]; Hexane, 25 C): 0.362 log10 K
Compound: Cc1cc(C)cc(O)c1

log K of transfer, water to solvent [1]: 3.99 log10 K | log K of transfer, gas to solvent ([2]; Butyronitrile, 25 C): 2.87 log10 K | log K of transfer, gas to solvent ([2]; Hexadecane, 25 C): 3.06 log10 K | log K of transfer, gas to solvent ([2]; Pentan-1-ol, 25 C): 2.88 log10 K | log K of transfer, gas to solvent ([2]; Propionitrile, 25 C): 2.78 log10 K | log K of transfer, gas to solvent ([2]; Water, 25 C): -1.22 log10 K | log K of transfer, water to solvent ([3]; Butyronitrile, 25 C): 4.09 log10 K | log K of transfer, water to solvent ([3]; Hexadecane, 25 C): 4.28 log10 K | log K of transfer, water to solvent ([3]; Pentan-1-ol, 25 C): 4.1 log10 K | log K of transfer, water to solvent ([3]; Propionitrile, 25 C): 4 log10 K
Compound: C=CCCCCC

Compound: CCCC(C)=O
log K of transfer, water to solvent [1]: 0.84 log10 K | log K of transfer, gas to solvent ([2]; Benzene, 25 C): 3.77 log10 K | log K of transfer, gas to solvent ([2]; CCl4, 25 C): 3.52 log10 K | log K of transfer, gas to solvent ([2]; Chlorobenzene, 25 C): 3.87 log10 K | log K of transfer, gas to solvent ([2]; Cyclohexane, 25 C): 2.98 log10 K | log K of transfer, gas to solvent ([2]; Hexadecane, 25 C): 2.75 log10 K | log K of transfer, gas to solvent ([2]; Methanol, 25 C): 3.58 log10 K | log K of transfer, gas to solvent ([2]; Octan-1-ol, 25 C): 3.19 log10 K | log K of transfer, gas to solvent ([2]; Toluene, 25 C): 3.68 log10 K | log K of transfer, gas to solvent ([2]; Water, 25 C): 2.58 log10 K | log K of transfer, water to solvent ([3]; Benzene, 25 C): 1.19 log10 K | log K of transfer, water to solvent ([3]; CCl4, 25 C): 0.94 log10 K | log K of transfer, water to solvent ([3]; Chlorobenzene, 25 C): 1.29 log10 K | log K of transfer, water to solvent ([3]; Cyclohexane, 25 C): 0.4 log10 K | log K of transfer, water to solvent ([3]; Hexadecane, 25 C): 0.175 log10 K | log K of transfer, water to solvent ([3]; Methanol, 25 C): 0.999 log10 K | log K of transfer, water to solvent ([3]; Octan-1-ol(dry), 25 C): 0.61 log10 K | log K of transfer, water to solvent ([3]; Toluene, 25 C): 1.1 log10 K

Compound: C1CCOC1
log K of transfer, water to solvent [1]: 0.46 log10 K | log K of transfer, gas to solvent ([2]; 1,2-Dichloroethane, 25 C): 3.32 log10 K | log K of transfer, gas to solvent ([2]; CCl4, 25 C): 3.13 log10 K | log K of transfer, gas to solvent ([2]; Chlorobenzene, 25 C): 2.97 log10 K | log K of transfer, gas to solvent ([2]; Chloroform, 25 C): 3.86 log10 K | log K of transfer, gas to solvent ([2]; Di-n-butyl ether, 25 C): 2.79 log10 K | log K of transfer, gas to solvent ([2]; Hexadecane, 25 C): 2.63 log10 K | log K of transfer, gas to solvent ([2]; Hexane, 25 C): 2.7 log10 K | log K of transfer, gas to solvent ([2]; Methanol, 25 C): 3.25 log10 K | log K of transfer, gas to solvent ([2]; Octan-1-ol, 25 C): 2.86 log10 K | log K of transfer, gas to solvent ([2]; Propan-1-ol, 25 C): 2.9 log10 K | log K of transfer, gas to solvent ([2]; Propan-2-ol, 25 C): 2.89 log10 K | log K of transfer, gas to solvent ([2]; Propanone, 25 C): 3.02 log10 K | log K of transfer, gas to solvent ([2]; Tetrahydrofuran, 25 C): 3.14 log10 K | log K of transfer, gas to solvent ([2]; Water, 25 C): 2.56 log10 K | log K of transfer, water to solvent ([3]; 1,2-Dichloroethane, 25 C): 0.76 log10 K | log K of transfer, water to solvent ([3]; Acetone, 25 C): 0.46 log10 K | log K of transfer, water to solvent ([3]; CCl4, 25 C): 0.57 log10 K | log K of transfer, water to solvent ([3]; Chlorobenzene, 25 C): 0.41 log10 K | log K of transfer, water to solvent ([3]; Chloroform, 25 C): 1.3 log10 K | log K of transfer, water to solvent ([3]; Di-n-butyl ether, 25 C): 0.23 log10 K | log K of transfer, water to solvent ([3]; Hexadecane, 25 C): 0.076 log10 K | log K of transfer, water to solvent ([3]; Hexane, 25 C): 0.14 log10 K | log K of transfer, water to solvent ([3]; Methanol, 25 C): 0.69 log10 K | log K of transfer, water to solvent ([3]; Octan-1-ol(dry), 25 C): 0.3 log10 K | log K of transfer, water to solvent ([3]; Propan-1-ol, 25 C): 0.34 log10 K | log K of transfer, water to solvent ([3]; Propan-2-ol, 25 C): 0.33 log10 K | log K of transfer, water to solvent ([3]; Tetrahydrofuran, 25 C): 0.58 log10 K

Compound: Cc1cccc(C)c1
log K of transfer, water to solvent [1]: 3.2 log10 K | log K of transfer, gas to solvent ([2]; 1,2-Dichloroethane, 25 C): 4.38 log10 K | log K of transfer, gas to solvent ([2]; CCl4, 25 C): 4.18 log10 K | log K of transfer, gas to solvent ([2]; Chloroform, 25 C): 4.29 log10 K | log K of transfer, gas to solvent ([2]; Cyclohexane, 25 C): 3.95 log10 K | log K of transfer, gas to solvent ([2]; Hexadecane, 25 C): 3.84 log10 K | log K of transfer, gas to solvent ([2]; Octan-1-ol, 25 C): 3.79 log10 K | log K of transfer, gas to solvent ([2]; Water, 25 C): 0.61 log10 K | log K of transfer, water to solvent ([3]; 1,2-Dichloroethane, 25 C): 3.77 log10 K | log K of transfer, water to solvent ([3]; CCl4, 25 C): 3.57 log10 K | log K of transfer, water to solvent ([3]; Chloroform, 25 C): 3.68 log10 K | log K of transfer, water to solvent ([3]; Cyclohexane, 25 C): 3.34 log10 K | log K of transfer, water to solvent ([3]; Hexadecane, 25 C): 3.23 log10 K | log K of transfer, water to solvent ([3]; Octan-1-ol(dry), 25 C): 3.18 log10 K
